The source of these data is ChEMBL document CHEMBL3301472, “MMV Malaria Box HIV and cytotoxicity screening”.

What all share (format): toxicity, cell-based
The nature of data set [1]: MMV: MTT Cytotoxicity Assay Day 3 pi, U87-CD4-CCR5 cells, % cell death @ 5mM compound. As to conditions: human, u87-cd4-ccr5, 5000 µM.
Data set [2] in a line: MMV: MTT Cytotoxicity Assay Day 3 pi, U87-CD4-CXCR4 cells, % cell death @ 5mM compound. As to conditions: human, u87-cd4-cxcr4, 5000 µM.
Data set [3] is described as follows: MMV: MTT Cytotoxicity Assay Day 7 pi of Assay #6 (compound washed out Day 1 pi), U87-CD4-CCR5 cells, % cell death @ 5mM compound. To be noted: human, u87-cd4-ccr5, 5000 µM.
The nature of data set [4]: MMV: MTT Cytotoxicity Assay Day 7 pi of Assay #7 (compound washed out Day 1 pi), U87-CD4-CXCR4 cells, % cell death @ 5mM compound. To be noted: human, u87-cd4-cxcr4, 5000 µM.
A short description of data set [5]: MMV: MTT Cytotoxicity Assay Day 7 pi of Assay #10 (NO washout), U87-CD4-CCR5 cells, % cell death @ 5mM compound. As to conditions: human, u87-cd4-ccr5, 5000 µM.
Data set [6] can be described thus: MMV: MTT Cytotoxicity Assay Day 7 pi of Assay #11 (NO washout), U87-CD4-CXCR4 cells, % cell death @ 5mM compound. As to conditions: human, u87-cd4-cxcr4, 5000 µM.

On to `CCCCCn1c(=N)n(CC(O)COc2cccc(C)c2)c2ccccc21.Cl` (centres undefined), for which the “% Cell Death” value in data set [1] worked out at 99; in data set [2] it was 71; in data set [3], 65; in data set [4], 60; in data set [5], 115; in data set [6] it was 110.

`CCOc1ccc(C2N(C)c3ccccc3N2C)cc1`: the “% Cell Death” value turned out to be 92 in data set [1]; 79 in data set [2]; 105 in data set [3]; 98 in data set [4]; 115 in data set [5]; 100 in data set [6].

With `CCN(CC)CCNc1ncnc2c1[nH]c1ccc(Br)cc12`, the “% Cell Death” value was -7 in data set [1]; 24 in data set [2]; -1 in data set [3]; -18 in data set [4]; 15 in data set [5]; -18 in data set [6].

As for `COc1ccc(C2C(C(=O)Nc3cccc(OC)c3)c3ccccc3C(=O)N2C2CCCCC2)cc1` (centres undefined), the “% Cell Death” value in data set [1] is listed as -65; in data set [2] it was 15; in data set [3], 18; in data set [4] it was 22; in data set [5] it was -8; in data set [6], 37.

In the case of `CN1CCN(c2c3c(c(C#N)c4nc5ccccc5n24)CCC3)CC1`, the “% Cell Death” value is recorded as -3 in data set [1]; -10 in data set [2]; 1 in data set [3]; -15 in data set [4]; 8 in data set [5]; 16 in data set [6].

For `CCN1CCN(c2c(C(=O)c3ccccc3)cnc3cc(OC)c(OC)cc23)CC1`, the “% Cell Death” value in data set [1] was 43; in data set [2], 85; in data set [3] it was 23; in data set [4], -11; in data set [5], 47; in data set [6] it was 99.

As for `C[n+]1c2ccccc2nc2ccc(NCCO)cc21`, the “% Cell Death” value in data set [1] was -33; in data set [2] it was 11; in data set [3] it was 29; in data set [4], -30; in data set [5], 49; in data set [6] it was 16.

For the compound `COc1cccc(O)c1CN1CCC2(CCCN(Cc3ccc(F)cc3)C2)C1` (centres undefined), the “% Cell Death” value was -63 in data set [1]; -7 in data set [2]; -1 in data set [3]; 21 in data set [4]; 7 in data set [5]; 6 in data set [6].

For the compound `Clc1ccc2[nH]c3c(NCCCN4CCOCC4)ncnc3c2c1`, the “% Cell Death” value is 110 in data set [1]; 100 in data set [2]; 105 in data set [3]; 91 in data set [4]; 141 in data set [5]; 118 in data set [6].

With `Cc1cc(C=C2SC(=Nc3ccccc3)N(C3CCCC3)C2=O)c(C)n1-c1ccc(Cl)cc1`, the “% Cell Death” value is on record as 96 in data set [1]; 65 in data set [2]; 8 in data set [3]; 36 in data set [4]; 140 in data set [5]; 90 in data set [6].

For `O=C1CC(O)(C(F)(F)C(F)(F)F)Oc2ccccc21` (centres undefined), the “% Cell Death” value is reported as -14 in data set [1]; 32 in data set [2]; 4 in data set [3]; -15 in data set [4]; 17 in data set [5]; 35 in data set [6].

Take `COc1cc(OC)cc(C(=O)Nc2ccc(-c3nc4ccccc4[nH]3)cc2)c1`: the “% Cell Death” value in data set [1] turned out to be 47; in data set [2], 63; in data set [3] it was 59; in data set [4], 55; in data set [5], 115; in data set [6] it was 116.

Consider `CCN1CCCC1CNc1[nH]cnc2c3cc(Cl)ccc3nc1-2` (centres undefined), for which the “% Cell Death” value is reported as 45 in data set [1]; 23 in data set [2]; 26 in data set [3]; -7 in data set [4]; 40 in data set [5]; 14 in data set [6].

Regarding `COc1cc(CNCCc2ccc(Cl)cc2)cc(OC)c1O`, the “% Cell Death” value in data set [1] is recorded as -11; in data set [2], 35; in data set [3], -15; in data set [4], 11; in data set [5], 18; in data set [6], 91.

Consider `O=C(NC1CCN(Cc2ccccc2)CC1)c1cc(C(=O)NC2CCN(Cc3ccccc3)CC2)cc(C(=O)NC2CCN(Cc3ccccc3)CC2)c1`, for which the “% Cell Death” value in data set [1] is listed as 12; in data set [2], 60; in data set [3], 14; in data set [4] it was 72; in data set [5], 48; in data set [6], 71.

For `CCCCN(CCCC)S(=O)(=O)c1ccc(NC(=O)c2ccco2)cc1`, the “% Cell Death” value in data set [1] stood at 58; in data set [2], 45; in data set [3], 36; in data set [4], 41; in data set [5], 74; in data set [6], 39.

Turning to `CN1CCN(c2nc(Nc3ccc(O)cc3)nc3ccccc23)CC1.Cl`, the “% Cell Death” value is 11 in data set [1]; 32 in data set [2]; -8 in data set [3]; -23 in data set [4]; 43 in data set [5]; 110 in data set [6].

Regarding `CCOc1ccc2nc(C)cc(Nc3ccc(N(C)C)cc3)c2c1.Cl`, the “% Cell Death” value in data set [1] is listed as -27; in data set [2], 57; in data set [3], -13; in data set [4] it was 4; in data set [5], 23; in data set [6], 0.

As to `Cc1ccc(CN2CCC(C(=O)Nc3ccc(-c4cc5ccccc5[nH]4)cc3)CC2)o1`, the “% Cell Death” value was 33 in data set [1]; 20 in data set [2]; 31 in data set [3]; 20 in data set [4]; 65 in data set [5]; 22 in data set [6].

Take `COc1ccc(C2c3ccc4ccccc4c3Oc3ncn(CCCN(C)C)c(=N)c32)cc1` (centres undefined): the “% Cell Death” value is listed as 15 in data set [1]; 39 in data set [2]; -31 in data set [3]; -12 in data set [4]; -3 in data set [5]; -61 in data set [6].

Consider `Cc1ccc(Cn2c(N3CCC(C(=O)NCc4cccs4)CC3)nc3ccccc32)cc1`, for which the “% Cell Death” value worked out at 5 in data set [1]; 4 in data set [2]; 12 in data set [3]; 58 in data set [4]; 18 in data set [5]; 78 in data set [6].

Consider `CCN(CC)CCNc1ccnc2cc(Cl)ccc12`, for which the “% Cell Death” value in data set [1] is recorded as 4; in data set [2], 36; in data set [3], 21; in data set [4], -5; in data set [5] it was 17; in data set [6] it was -13.

Take `CCOC(=O)C1=C(c2ccccc2)N=c2sc(=Cc3cc(C)n(-c4ccc(F)cc4)c3C)c(=O)n2C1c1cccc(OC)c1OC` (centres undefined): the “% Cell Death” value in data set [1] is on record as 18; in data set [2], 45; in data set [3], 5; in data set [4] it was -3; in data set [5] it was -17; in data set [6], 20.

In the case of `Cc1cc(Nc2ccc(C)c(Cl)c2)n2nc(C(F)(F)F)nc2n1`, the “% Cell Death” value is 11 in data set [1]; 28 in data set [2]; -35 in data set [3]; -28 in data set [4]; 42 in data set [5]; 10 in data set [6].

Take `Cc1ccc(Nc2nc(NCCO)c3ccccc3n2)cc1C`: the “% Cell Death” value in data set [1] is -23; in data set [2], 28; in data set [3], 3; in data set [4] it was -22; in data set [5], 36; in data set [6] it was 12.

Turning to `CCOC(=O)c1c(C)n(-c2ccccc2)c2ccc(OC(=O)c3cc(OC)c(OC)c(OC)c3)cc12`, the “% Cell Death” value in data set [1] is recorded as -4; in data set [2], 34; in data set [3], -12; in data set [4], 2; in data set [5], 12; in data set [6] it was -19.

Consider `CCOc1cc(Br)c(C(C)NC(=O)c2cccc(OC)c2)cc1OCC` (centres undefined), for which the “% Cell Death” value is -32 in data set [1]; -7 in data set [2]; 13 in data set [3]; 11 in data set [4]; 28 in data set [5]; -7 in data set [6].

Take `Cc1[nH]c(-c2ccc(F)cc2)cc1C(=O)NC1CCN(Cc2ccccc2)CC1`: the “% Cell Death” value in data set [1] was 65; in data set [2], 41; in data set [3], 52; in data set [4], 6; in data set [5], 44; in data set [6], 29.

On to `O=C(Nc1cccc(C(F)(F)F)c1)c1cc(Cl)ccc1O`, for which the “% Cell Death” value in data set [1] was determined as 95; in data set [2] it was 70; in data set [3], 100; in data set [4] it was 97; in data set [5] it was 124; in data set [6] it was 95.
